From patent publication US9956204B2, “Composition for exterminating scuticociliates in fish including mebendazole” (NATIONAL INSTITUTE OF FISHERIES SCIENCE, priority 2016, dated 2018)

What was measured:
[1] = test system: scuticociliates; test: Scuticociliates extermination effect of candidate substances in MEM medium; assay type: cell-based; conditions: MEM medium
Description: CHSE-214 cell line into which scuticociliates were inoculated was cultured in advance. The CHSE-214 cell line was cultured in an incubator using an MEM medium at 22° C. Scuticociliates inoculated into the cell line proliferated for 3 days by which the number reaches to be capable of analyzing in vitro anti-scuticociliates effect. Scuticociliates that feed on the cell line and sufficiently grow were mixed with the candidate substance and the activity of scuticociliates was measured.
In order to analyze the antiparasitic activity of the above 19 types of candidate substances of scuticociliates extermination drugs, scuticociliates were cultured for 3 days, and 100 μl (1×10^5) was dispensed into each well of 96 wells. The candidate substances were diluted by each concentration and the final volume was dispensed into 100 μl. Thereafter, the two were mixed and finally made into 200 μl.

[2] = test system: scuticociliates; test: Scuticociliates extermination effect of candidate substances in seawater medium; assay type: cell-based; conditions: seawater medium; for Survival or Death of scuticociliates (activity and shape, microscope): 4 hour
Description: For this, scuticociliates were cultured in CHSE-214 cell line (using MEM medium), and then scuticociliates were collected and centrifuged with sterilized seawater or artificial seawater (20‰) to replace them with a seawater medium. Each of 100 μl (1×10^5) was dispensed into each well of 96 wells, followed by further culture for 30 minutes. The candidate substances diluted in seawater to have a volume of 100 μl per each concentration were mixed with scuticociliates to have the final volume of 200 μl and cultured for 4 hour.

[3] = test system: scuticociliates; test: Clinical trial: cumulative mortality of olive flounder artificially infected with scuticociliates; assay type: in vivo; conditions: observed for 15 days
Description: For the artificial infection, 1×10^5 of scuticociliates per fish were intraperitoneally injected into a total of […] juvenile olive flounder (average 10 cm). The experiment was performed by dividing them into 5 groups of every 20 fish per each experiment.

[4] = test system: scuticociliates; test: Field test of Mebendazole for exterminating scuticociliates in olive flounder farms; assay type: in vivo
Source text: The pharmaceutical efficacy was investigated after administering Mebendazole once daily for 5˜7 days to the olive flounder which are infected with scuticociliates in three major domestic olive flounder aquaculture area (Jeju, Wando, Pohang). First, the natural scuticociliates infection rate of each olive flounder farm was investigated, and the efficacy was investigated after administering Mebendazole accordingly. [table]

[5] = in vivo
Description: (§1) Mebendazole was orally or immersing administered at a concentration of 100 or 500 mg/kg BW (ppm) to the olive flounder once for 1 hour. After 6 hours, 1 day, 2 days, 7 days and 14 days, a blood chemistry analysis and an immunological analysis were conducted.
(§2) The blood chemistry analysis was conducted using Fuji-Dri Chem 4500 (Fuji company, Japan) to measure hemoglobin (Hb), hematocrit (Ht), glucose (GLU), total protein (TP), total cholesterol (TCHO), GOT/GPT and lactic acid (LDH), etc.

[6] = test system: lysozyme; conditions: in vivo
Description: as §1
The immunological analysis was conducted to measure the lysozyme activity of the kidney, spleen and serum (Lange et al., 2001, Parry, R. M. Chandau, R. C. & Shahani, R. M. (1965). A rapid and sensitive assay of muramidase. Proceedings of the Society for Experimental Biology Medicine 119, 384-386). In brief explanation, 100 μl of the prepared plasma was diluted with PBS (pH 6.2) in 2-fold to 4 steps on a 96-well plate and 100 μg of Micrococcus lysodekiticus (Sigma, USA) liquid diluted with PBS (pH 6.2) to 0.4 mg/ml was added to each well. After that, absorbance at 590 nm was measured every 0, 15, 30, 45 and 60 minutes. One unit of lysozyme activity was converted into the amount of a sample that decreases the absorbance 0.001/min.

[7] = within 24~48 hours; cited from earlier work
[8] = Safety test according to field test: blood chemistry in Wando, Pohang and Jeju farms; conditions: field application concentration range
Description: as §1, §2

CCCOc1ccc2nc(NC(=O)OC)[nH]c2c1 [Oxibendazole]
Survival or Death of scuticociliates (activity and shape, microscope) ([1]; Dosage 500 ppm): Survival | Survival or Death of scuticociliates (activity and shape, microscope) ([1]; Dosage 1000 ppm): Survival | Survival or Death of scuticociliates (activity and shape, microscope) ([1]; Dosage 1500 ppm): Δ | Survival or Death of scuticociliates (activity and shape, microscope) ([1]; Dosage 2000 ppm): Δ | Survival or Death of scuticociliates (activity and shape, microscope) ([1]; Dosage 2500 ppm): Death | Survival or Death of scuticociliates (activity and shape, microscope) ([1]; Dosage 3000 ppm): Death | Survival or Death of scuticociliates (activity and shape, microscope) ([1]; Dosage 3500 ppm): Death | Survival or Death of scuticociliates (activity and shape, microscope) ([1]; Dosage 4000 ppm): Death | Survival or Death of scuticociliates (activity and shape, microscope) ([2]; Dosage 500 ppm): Survival | Survival or Death of scuticociliates (activity and shape, microscope) ([2]; Dosage 1000 ppm): Survival | Survival or Death of scuticociliates (activity and shape, microscope) ([2]; Dosage 1500 ppm): Δ | Survival or Death of scuticociliates (activity and shape, microscope) ([2]; Dosage 2000 ppm): Δ | Survival or Death of scuticociliates (activity and shape, microscope) ([2]; Dosage 2500 ppm): Δ | Survival or Death of scuticociliates (activity and shape, microscope) ([2]; Dosage 3000 ppm): Δ | Survival or Death of scuticociliates (activity and shape, microscope) ([2]; Dosage 3500 ppm): Death | Survival or Death of scuticociliates (activity and shape, microscope) ([2]; Dosage 4000 ppm): Death

COC(=O)Nc1nc2ccc(C(=O)c3ccccc3)cc2[nH]1 [Mebendazole]
killing of scuticociliates compared with the 19 candidate substances [1]: effect of killing scuticociliates at the lowest concentration | Survival or Death of scuticociliates (activity and shape, microscope) ([1]; Dosage 10 ppm): Survival | Survival or Death of scuticociliates (activity and shape, microscope) ([1]; Dosage 50 ppm): Survival | Survival or Death of scuticociliates (activity and shape, microscope) ([1]; Dosage 100 ppm): Death | Survival or Death of scuticociliates (activity and shape, microscope) ([1]; Dosage 200 ppm): Death | Survival or Death of scuticociliates (activity and shape, microscope) ([1]; Dosage 300 ppm): Death | Survival or Death of scuticociliates (activity and shape, microscope) ([1]; Dosage 400 ppm): Death | Survival or Death of scuticociliates (activity and shape, microscope) ([1]; Dosage 500 ppm): Death | Survival or Death of scuticociliates (activity and shape, microscope) ([1]; Dosage 600 ppm): Death | Survival or Death of scuticociliates (activity and shape, microscope) ([1]; Dosage 700 ppm): Death | Survival or Death of scuticociliates (activity and shape, microscope) ([1]; Dosage 800 ppm): Death | Survival or Death of scuticociliates (activity and shape, microscope) ([1]; Dosage 900 ppm): Death | Survival or Death of scuticociliates (activity and shape, microscope) ([1]; Dosage 1000 ppm): Death | killing of scuticociliates compared with the 19 candidate substances [2]: most effectively kills scuticociliates | Survival or Death of scuticociliates (activity and shape, microscope) ([2]; Dosage 10 ppm): Survival | Survival or Death of scuticociliates (activity and shape, microscope) ([2]; Dosage 50 ppm): Survival | Survival or Death of scuticociliates (activity and shape, microscope) ([2]; Dosage 100 ppm): Death | Survival or Death of scuticociliates (activity and shape, microscope) ([2]; Dosage 200 ppm): Death | Survival or Death of scuticociliates (activity and shape, microscope) ([2]; Dosage 300 ppm): Death | Survival or Death of scuticociliates (activity and shape, microscope) ([2]; Dosage 400 ppm): Death | Survival or Death of scuticociliates (activity and shape, microscope) ([2]; Dosage 500 ppm): Death | Survival or Death of scuticociliates (activity and shape, microscope) ([2]; Dosage 600 ppm): Death | Survival or Death of scuticociliates (activity and shape, microscope) ([2]; Dosage 700 ppm): Death | Survival or Death of scuticociliates (activity and shape, microscope) ([2]; Dosage 800 ppm): Death | Survival or Death of scuticociliates (activity and shape, microscope) ([2]; Dosage 900 ppm): Death | Survival or Death of scuticociliates (activity and shape, microscope) ([2]; Dosage 1000 ppm): Death | cumulative mortality rate ([3]; immersion administration 100 ppm for 1 hour): remarkably decreased | cumulative mortality rate ([3]; oral administration once, feed with 200 ppm): remarkably decreased | infection of scuticociliates after administration ([4]; Juju farm, once daily for 5 days, infection rate before 50%): no infection of scuticociliates was detected | infection of scuticociliates after administration ([4]; Pohang farm, once daily for 7 days, infection rate before 70%): no infection of scuticociliates was detected | infection of scuticociliates after administration ([4]; Wando farm, once daily for 7 days, infection rate before 70%): no infection of scuticociliates was detected | MCHC numerical values [5]: did not show any significant differences | concentration of Hb in the blood [5]: slightly increases | effect on activity of lysozyme in serum, spleen, kidney [6]: does not affect the activity of lysozyme | oral dose excreted in the urine [7]: 10% | liver index (GOT and GPT) of infected fish after administration [8]: lowered to the normal range
